Data published in patent US5434133A, “CNP analog peptides and their use” (Suntory Limited, priority 1991, dated 1995).
“Also recorded” adds a separate entry of the source. Where a SMILES comes first, the peptide text is derived from it. Bridges are numbered along the chain shown (N, C = ends). Where no end group is shown, it is not given here. [ ]: non-standard residue; d: D form. Cha = N[C@@H](CC1CCCCC1)C(=O)O

Tested on: cultured vascular smooth muscle cells (VSMC) derived from the aortas of rats
Test: cGMP producing activity in cultured VSMC (cGMP radioimmunoassay)
Format: cell-based, rat
Conditions: for cGMP producing activity (in words): comparison with CNP-22 or α-hANP; for cGMP producing activity (% increase for 1 μm): specific activity compared to 1 μm α-hANP (2000 fmol/400000 cells) = 100, peptide at 1 μm
Method: 1-1: Measurement of CGMP Producing Activity
The above-mentioned activity of compounds synthesized according to the present invention was measured by the methods of Hirata et al. (Biochem. Biophys. Res. Commun., 128, 538, 1985) and Scarborough et al. (J. Biol. Chem., 261, 12960, 1986). The cells used were cultured vascular smooth muscle cells (hereunder abbreviated as VSMC) derived from the aortas of rats. From 10^-9 to 10^-6 M of α-hANP or a 20 peptide of interest was incubated together with VSMC and the amount cGMP produced was measured by cGMP radioimmunoassay. Percent maximum reactivity for each peptide, with the value of maximum reactivity for α-hANP being taken as 100%, was used as an indicator of activity.

Row | Compound | cGMP producing activity (in words) (rat VSMC) | cGMP producing activity (% increase for 1 μm) [%] | cGMP producing activity relative to α-hANP (rat VSMC, times as high activity as α-hANP)
1 | CC[C@H](C)[C@@H]1NC(=O)[C@H](CCCNC(=N)N)NC(=O)[C@H](CC(=O)O)NC(=O)[C@H](CCSC)NC(=O)[C@H](CCCNC(=N)N)NC(=O)CNC(=O)CNC(=O)[C@H](Cc2ccccc2)NC(=O)[C@@H](NC(=O)[C@H](CO)NC(=O)[C@H](CO)NC(=O)[C@H](CCCNC(=N)N)NC(=O)[C@H](CCCNC(=N)N)NC(=O)[C@H](CC(C)C)NC(=O)[C@@H](N)CO)CSSC[C@@H](C(=O)O)NC(=O)CNC(=O)[C@H](CC(C)C)NC(=O)CNC(=O)[C@H](CO)NC(=O)[C@H](CCC(N)=O)NC(=O)[C@H](C)NC(=O)CNC1=O [Compound 1] | only a weak cGMP producing activity at a level comparable to α-hANP | 62 | –
2 | CC[C@H](C)[C@@H]1NC(=O)[C@H](CCCNC(=N)N)NC(=O)[C@H](CC(=O)O)NC(=O)[C@H](CC(C)C)NC(=O)[C@H](CCCCN)NC(=O)[C@H](CC(C)C)NC(=O)CNC(=O)[C@H](Cc2ccccc2)NC(=O)[C@@H](NC(=O)CNC(=O)[C@H](CCCCN)NC(=O)[C@H](CO)NC(=O)[C@H](CC(C)C)NC(=O)CN)CSSC[C@@H](C(=O)N[C@@H](CC(N)=O)C(=O)N[C@@H](CO)C(=O)N[C@@H](Cc2ccccc2)C(=O)N[C@@H](CCCNC(=N)N)C(=O)N[C@@H](Cc2ccc(O)cc2)C(=O)O)NC(=O)CNC(=O)[C@H](CC(C)C)NC(=O)CNC(=O)[C@H](CO)NC(=O)[C@H](CCSC)NC(=O)[C@H](CO)NC(=O)CNC1=O [Compound 3] | strong cGMP producing activity at a comparable level to that exhibited by CNP-22 | 667 | –
3 | CC[C@H](C)[C@@H]1NC(=O)[C@H](CCCNC(=N)N)NC(=O)[C@H](CC(=O)O)NC(=O)[C@H](CC(C)C)NC(=O)[C@H](CCCCN)NC(=O)[C@H](CC(C)C)NC(=O)CNC(=O)[C@H](Cc2ccccc2)NC(=O)[C@@H](NC(=O)[C@H](CO)NC(=O)[C@H](CO)NC(=O)[C@H](CCCNC(=N)N)NC(=O)[C@H](CCCNC(=N)N)NC(=O)[C@H](CC(C)C)NC(=O)[C@@H](N)CO)CSSC[C@@H](C(=O)O)NC(=O)CNC(=O)[C@H](CC(C)C)NC(=O)CNC(=O)[C@H](CO)NC(=O)[C@H](CCSC)NC(=O)[C@H](CO)NC(=O)CNC1=O [Compound 4] (H-SLRRSSCFGLKLDRIGSMSGLGC-OH; disulfide 7-23) | strong cGMP producing activity at a comparable level to that exhibited by CNP-22 | 663 | –
4 | CC[C@H](C)[C@@H]1NC(=O)[C@H](CCCNC(=N)N)NC(=O)[C@H](CC(=O)O)NC(=O)[C@H](CCSC)NC(=O)[C@H](CCCCN)NC(=O)CNC(=O)CNC(=O)[C@H](Cc2ccccc2)NC(=O)[C@@H](NC(=O)CNC(=O)[C@H](CCCCN)NC(=O)[C@H](CO)NC(=O)[C@H](CC(C)C)NC(=O)CN)CSSC[C@@H](C(=O)O)NC(=O)CNC(=O)[C@H](CC(C)C)NC(=O)CNC(=O)[C@H](CO)NC(=O)[C@H](CCSC)NC(=O)[C@H](CO)NC(=O)CNC1=O [Compound 11] (H-GLSKGCFGGKMDRIGSMSGLGC-OH; disulfide 6-22) | particularly marked; also recorded: lower in cGMP producing activity than the other one- and two-residue substituted derivatives | 71 | –
5 | CC[C@H](C)[C@@H]1NC(=O)[C@H](CCCNC(=N)N)NC(=O)[C@H](CC(=O)O)NC(=O)[C@H](CCSC)NC(=O)[C@H](CCCNC(=N)N)NC(=O)[C@H](CC(C)C)NC(=O)CNC(=O)[C@H](Cc2ccccc2)NC(=O)[C@@H](NC(=O)CNC(=O)[C@H](CCCCN)NC(=O)[C@H](CO)NC(=O)[C@H](CC(C)C)NC(=O)CN)CSSC[C@@H](C(=O)O)NC(=O)CNC(=O)[C@H](CC(C)C)NC(=O)CNC(=O)[C@H](CO)NC(=O)[C@H](CCSC)NC(=O)[C@H](CO)NC(=O)CNC1=O [Compound 12] (H-GLSKGCFGLRMDRIGSMSGLGC-OH; disulfide 6-22) | – | 273 | –
6 | CC[C@H](C)[C@@H]1NC(=O)[C@H](CCCNC(=N)N)NC(=O)[C@H](CC(=O)O)NC(=O)[C@H](CC(C)C)NC(=O)[C@H](CCCNC(=N)N)NC(=O)CNC(=O)CNC(=O)[C@H](Cc2ccccc2)NC(=O)[C@@H](NC(=O)CNC(=O)[C@H](CCCCN)NC(=O)[C@H](CO)NC(=O)[C@H](CC(C)C)NC(=O)CN)CSSC[C@@H](C(=O)O)NC(=O)CNC(=O)[C@H](CC(C)C)NC(=O)CNC(=O)[C@H](CO)NC(=O)[C@H](CCSC)NC(=O)[C@H](CO)NC(=O)CNC1=O [Compound 13] (H-GLSKGCFGGRLDRIGSMSGLGC-OH; disulfide 6-22) | – | 58 | –
7 | CC[C@H](C)[C@H](NC(=O)[C@H](CCCNC(=N)N)NC(=O)[C@H](CC(=O)O)NC(=O)[C@H](CC(C)C)NC(=O)[C@H](CCCCN)NC(=O)[C@H](CC(C)C)NC(=O)CNC(=O)[C@H](Cc1ccccc1)NC(=O)[C@H](CSC)NC(=O)CNC(=O)[C@H](CCCCN)NC(=O)[C@H](CO)NC(=O)[C@H](CC(C)C)NC(=O)CN)C(=O)NCC(=O)N[C@@H](CO)C(=O)N[C@@H](CCSC)C(=O)N[C@@H](CO)C(=O)NCC(=O)N[C@@H](CC(C)C)C(=O)NCC(=O)N[C@@H](CSC)C(=O)O [Compound 19, H-Gly-Leu-Ser-Lys-Gly-Cys(Me)-Phe-Gly-Leu-Lys-Leu-Asp-Arg-Ile-Gly-Ser-Met- Ser-Gly-Leu-Gly-Cys(Me)-OH] | hardly reduced the cGMP producing activity | 38 | –
8 | CC[C@H](C)[C@@H]1NC(=O)[C@H](CCCNC(=N)N)NC(=O)[C@H](CC(=O)O)NC(=O)[C@H](CC(C)C)NC(=O)[C@H](CCCCN)NC(=O)[C@H](CC(C)C)NC(=O)CNC(=O)[C@H](CC2CCCCC2)NC(=O)[C@@H](N)CSSC[C@@H](C(=O)N[C@@H](CC(N)=O)C(=O)N[C@@H](CO)C(=O)N[C@@H](Cc2ccccc2)C(=O)N[C@@H](CCCNC(=N)N)C(=O)N[C@@H](Cc2ccc(O)cc2)C(=O)O)NC(=O)CNC(=O)[C@H](CC(C)C)NC(=O)CNC(=O)[C@H](CO)NC(=O)[C@H](CCC(N)=O)NC(=O)[C@H](C)NC(=O)CNC1=O [Compound 27] (H-C[Cha]GLKLDRIGAQSGLGCNSFRY-OH; disulfide 1-17) | – | 523 | 4-6 times
9 | GLSKGCpC1FGLKLDRIGSMSGLGC [Compound 16] | stronger activity than CNP-22 | 688 | –
10 | pCNP-53: porcine CNP-53, CNP-22 with 31 amino acid residues attached to the N-terminus (DLRVDTKSRAAWARLLHEHPNARKYKGGNKKGLSKGCFGLKLDRIGSMSGLGC; disulfide 37-53 (inferred); ends not checked; UniProt P18104 74-126, looked up) [reference compound] | – | 524 | –
